Here are results for 23 compounds from patent US9567345B2, “Pharmaceutically active pyrazolo-triazine derivatives” (LEAD DISCOVERY CENTER GMBH, priority 2012, dated 2017).

The structures appear in SMILES notation.

What all share (format): biochemical
Assay [1] has as its target T1, CDK2/CycA (Homo sapiens, UniProt P24941).
T1 construct: purchased Proqinase
Nature of the assay: CDK2 Enzymatic Activity Assay (Lance Kinase Activity Assay, FRET). The note with it: Table 5B, class symbols per IC50 [nM] ranges of b581; read-out: CDK2: Selectivity of CDK7 inhibition over CDK2 inhibition. In short, it runs like this:
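LANCE TR-FRET assay: CDK2/CycA phosphorylated ULight-MBP peptide in HEPES 50 mM pH 7.5 buffer with MgCl2, EGTA, DTT and Tween-20 for 1 h at room temperature. Eu-anti-phospho-MBP antibody with EDTA was then added for 1 h before reading. IC50 was fitted from 8-point, 1:3 sigmoidal dose-response curves.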

For assay [2], the target named is CDK7/CycH/Mat1 (Homo sapiens, UniProt P50613). In words: CDK7 Enzymatic Activity Assay (Lance Kinase Activity Assay, FRET). To be noted: CDK7/CycH/Mat1, 25 μM ATP final; class ranges; read-out: CDK7: IC50 [nM] for CDK7 inhibition. The procedure, abridged:
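Ulight-MBP peptide phosphorylation by CDK7/CycH/Mat1 in HEPES 50 mM pH 7.5, MgCl2, EGTA, DTT, Tween-20; 1 h at room temperature, then EDTA stop with Eu-anti-phospho-MBP antibody for 1 h and TR-FRET read. Compounds in 8-point 1:3 DMSO series; IC50 from sigmoidal dose-response fit.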

Assay [3] concerns the target CDK9/Cyclin T1 (Homo sapiens, UniProt P50750). In words: CDK9 Enzymatic Activity Assay (Lance Kinase Activity Assay, FRET). The note with it: Table 5B, class symbols per IC50 [nM] ranges of b581; read-out: CDK9: Selectivity of CDK7 inhibition over CDK9 inhibition. In short, it runs like this:
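CDK9/cyclin T1 phosphorylation of a ULight-MBP peptide was run for 1 h at room temperature in pH 7.5 HEPES buffer with MgCl2, EGTA, DTT and Tween-20. It was followed by 1 h with Eu-anti-phospho-MBP antibody (4 nM) in EDTA detection buffer. TR-FRET loss gave IC50 from 8-point, 1:3 sigmoidal dose-response curves.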

Chain of CDK9/Cyclin T1 (P50750 whole entry): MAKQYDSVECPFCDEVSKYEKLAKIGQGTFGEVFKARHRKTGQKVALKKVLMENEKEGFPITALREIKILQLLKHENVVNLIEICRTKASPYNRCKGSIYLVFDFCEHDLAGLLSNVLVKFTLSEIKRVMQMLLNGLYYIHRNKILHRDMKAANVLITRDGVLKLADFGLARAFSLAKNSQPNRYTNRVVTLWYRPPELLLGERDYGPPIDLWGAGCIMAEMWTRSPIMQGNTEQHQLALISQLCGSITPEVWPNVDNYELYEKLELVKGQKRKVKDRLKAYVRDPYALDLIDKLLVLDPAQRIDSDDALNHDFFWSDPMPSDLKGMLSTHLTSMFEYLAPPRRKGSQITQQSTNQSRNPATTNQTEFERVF
Chain of CDK9/Cyclin T1 (O60563 whole entry partner): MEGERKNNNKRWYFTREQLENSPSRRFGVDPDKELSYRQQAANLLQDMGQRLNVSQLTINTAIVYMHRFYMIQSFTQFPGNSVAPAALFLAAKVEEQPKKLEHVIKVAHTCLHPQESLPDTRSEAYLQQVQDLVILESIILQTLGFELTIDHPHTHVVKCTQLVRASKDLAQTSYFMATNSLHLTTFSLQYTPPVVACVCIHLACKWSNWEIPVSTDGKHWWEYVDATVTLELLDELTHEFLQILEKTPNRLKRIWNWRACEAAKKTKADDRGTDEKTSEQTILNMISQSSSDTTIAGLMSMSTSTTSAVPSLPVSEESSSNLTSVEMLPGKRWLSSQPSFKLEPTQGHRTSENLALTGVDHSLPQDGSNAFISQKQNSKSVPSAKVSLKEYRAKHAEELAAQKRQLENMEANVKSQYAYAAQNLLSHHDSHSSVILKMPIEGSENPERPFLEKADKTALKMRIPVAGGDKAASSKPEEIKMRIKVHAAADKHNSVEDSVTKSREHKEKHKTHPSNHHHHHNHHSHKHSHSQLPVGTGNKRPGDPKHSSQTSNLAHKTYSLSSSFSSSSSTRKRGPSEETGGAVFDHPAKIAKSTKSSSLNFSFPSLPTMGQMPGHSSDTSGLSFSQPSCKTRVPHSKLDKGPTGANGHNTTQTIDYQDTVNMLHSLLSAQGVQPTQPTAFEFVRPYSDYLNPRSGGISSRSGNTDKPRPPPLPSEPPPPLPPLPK
Chain of CDK7/CycH/Mat1 (P50613 whole entry): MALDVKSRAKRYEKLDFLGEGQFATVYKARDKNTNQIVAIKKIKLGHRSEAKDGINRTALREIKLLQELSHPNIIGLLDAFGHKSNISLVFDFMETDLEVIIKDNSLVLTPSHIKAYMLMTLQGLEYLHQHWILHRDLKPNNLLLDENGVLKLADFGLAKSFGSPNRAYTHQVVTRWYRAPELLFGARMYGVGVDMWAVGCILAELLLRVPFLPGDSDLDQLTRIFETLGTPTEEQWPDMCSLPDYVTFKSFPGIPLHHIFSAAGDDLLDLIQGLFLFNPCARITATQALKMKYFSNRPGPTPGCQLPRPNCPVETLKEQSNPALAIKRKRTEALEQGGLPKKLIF

With `CC(C)c1cnn2c(NCc3ccccc3-n3cccn3)nc(N3CCC4(CCCN4)C3)nc12` (stereo not drawn) [(VIII-17), N-(2-(1H-pyrazol-1-yl)benzyl)-8-isopropyl-2-(1,7-diazaspiro[4.4]nonan-7-yl)pyrazolo[1,5-a][1,3,5]triazin-4-amine], the IC50 in assay [1] is 500 to 2500 nM; in assay [2], less than 5 nM; in assay [3] it was greater than 2500 nM.
For the compound `CC(C)c1cnn2c(NCc3ccccc3-n3cccn3)nc(N3CCCC4(CCNCC4)C3)nc12` [(VIII-21), N-(2-(1H-pyrazol-1-yl)benzyl)-8-isopropyl-2-(2,9-diazaspiro[5.5]undecan-2-yl)pyrazolo[1,5-a][1,3,5]triazin-4-amine], the IC50 in assay [1] is 500 to 2500 nM; in assay [2] it was 5 to 10 nM; in assay [3], greater than 2500 nM.
The matching figures for `CC(C)c1cnn2c(NCc3ccccc3-n3cccn3)nc(N3CCC4(CCCCN4)CC3)nc12` [(VIII-23), N-(2-(1H-pyrazol-1-yl)benzyl)-8-isopropyl-2-(1,9-diazaspiro[5.5]undecan-9-yl)pyrazolo[1,5-a][1,3,5]triazin-4-amine]: 500 to 2500 nM, less than 5 nM and 500 to 2500 nM.
Turning to `CC(C)c1cnn2c(NCc3ccccc3-n3cccn3)nc(N3CCC(N(C)C)CC3)nc12` [(VIII-24), N-(2-(1H-pyrazol-1-yl)benzyl)-2-(4-(dimethylamino)piperidin-1-yl)-8-isopropylpyrazolo[1,5-a][1,3,5]triazin-4-amine], the IC50 was 50 to 500 nM in assay [1], less than 5 nM in assay [2] and 500 to 2500 nM in assay [3].
Regarding `CNC1CCN(c2nc(NCc3ccccc3-n3cccn3)n3ncc(C(C)C)c3n2)CC1` [(VIII-25), N-(2-(1H-pyrazol-1-yl)benzyl)-8-isopropyl-2-(4-(methylamino)piperidin-1-yl)pyrazolo[1,5-a][1,3,5]triazin-4-amine], the IC50 was 50 to 500 nM in assay [1], less than 5 nM in assay [2] and 500 to 2500 nM in assay [3].
Turning to `CC(C)Oc1ccccc1CNc1nc(N[C@@H]2CCCNC2)nc2c(C(C)C)cnn12` [(VIII-32), (R)-N4-(2-isopropoxybenzyl)-8-isopropyl-N2-(piperidin-3-yl)pyrazolo[1,5-a][1,3,5]triazine-2,4-diamine], the values for the IC50 in assay [1], in assay [2] and in assay [3] were 500 to 2500 nM, 5 to 10 nM and greater than 2500 nM, respectively.
With `CC(C)c1cnn2c(NCc3ccccc3-n3cncn3)nc(N[C@@H]3CCCNC3)nc12` [(VIII-33), (R)-N4-(2-(1H-1,2,4-triazol-1-yl)benzyl)-8-isopropyl-N2-(piperidin-3-yl)pyrazolo[1,5-a][1,3,5]triazine-2,4-diamine], the IC50 in assay [1] was less than 50 nM; in assay [2], less than 5 nM; in assay [3] it was 500 to 2500 nM.
For `CC(C)c1cnn2c(NCc3cccc4nonc34)nc(N3CCC4(CCCN4)CC3)nc12` [(VIII-36), N-(benzo[c][1,2,5]oxadiazol-4-ylmethyl)-8-isopropyl-2-(1,8-diazaspiro[4.5]decan-8-yl)pyrazolo[1,5-a][1,3,5]triazin-4-amine], in that order: greater than 2500 nM, less than 5 nM and 500 to 2500 nM.
For `CC(C)c1cnn2c(NCc3ccccc3-n3cccn3)nc(N3CCC4(CCNCC4)C3)nc12` [(VIII-37), N-(2-(1H-pyrazol-1-yl)benzyl)-8-isopropyl-2-(2,8-diazaspiro[4.5]decan-2-yl)pyrazolo[1,5-a][1,3,5]triazin-4-amine], in that order: greater than 2500 nM, less than 5 nM and greater than 2500 nM.
`CC(C)c1cnn2c(NCc3ccccc3N3CCCC3=O)nc(N3CCC4(CCCN4)CC3)nc12` [(VIII-38), 1-(2-(((8-isopropyl-2-(1,8-diazaspiro[4.5]decan-8-yl)pyrazolo[1,5-a][1,3,5]triazin-4-yl)amino)methyl)phenyl)pyrrolidin-2-one]: the IC50 was greater than 2500 nM in assay [1], less than 5 nM in assay [2] and greater than 2500 nM in assay [3].
As for `CC(C)c1cnn2c(NCc3ccccc3-n3cccn3)nc(NCCCN)nc12` [(VIII-039), N4-(2-(1H-pyrazol-1-yl)benzyl)-N2-(3-aminopropyl)-8-isopropylpyrazolo[1,5-a][1,3,5]triazine-2,4-diamine], the figures for the IC50 in assay [1], in assay [2] and in assay [3] were greater than 2500 nM, greater than 25 nM and greater than 2500 nM, respectively.
For the compound `CC(C)c1cnn2c(NCc3ccccc3-n3cccn3)nc(NCCN3CCCC3)nc12` [(VIII-040), N4-(2-(1H-pyrazol-1-yl)benzyl)-8-isopropyl-N2-(2-(pyrrolidin-1-yl)ethyl)pyrazolo[1,5-a][1,3,5]triazine-2,4-diamine], the results for the IC50 in assay [1], in assay [2] and in assay [3] were greater than 2500 nM, greater than 25 nM and greater than 2500 nM, respectively.
Turning to `CC(C)c1cnn2c(NCc3ccccc3-n3cccn3)nc(N3CC(N4CCC(F)(F)C4)C3)nc12` [(VIII-041), N-(2-(1H-pyrazol-1-yl)benzyl)-2-(3-(3,3-difluoropyrrolidin-1-yl)azetidin-1-yl)-8-isopropylpyrazolo[1,5-a][1,3,5]triazin-4-amine], the figures for the IC50 in assay [1], in assay [2] and in assay [3] were greater than 2500 nM, greater than 25 nM and greater than 2500 nM, respectively.
As for `CC(C)c1cnn2c(NCc3ccccc3-n3cccn3)nc(NC3CCNC3)nc12` (stereo not drawn) [(VIII-043), N4-(2-(1H-pyrazol-1-yl)benzyl)-8-isopropyl-N2-(pyrrolidin-3-yl)pyrazolo[1,5-a][1,3,5]triazine-2,4-diamine], the IC50 is 50 to 500 nM in assay [1], 5 to 10 nM in assay [2] and greater than 2500 nM in assay [3].
The matching figures for `CC(C)c1cnn2c(NCc3ccccc3-n3cccn3)nc(NCCCN3CCOCC3)nc12` [(VIII-044), N4-(2-(1H-pyrazol-1-yl)benzyl)-8-isopropyl-N2-(3-morpholinopropyl)pyrazolo[1,5-a][1,3,5]triazine-2,4-diamine]: greater than 2500 nM, greater than 25 nM and greater than 2500 nM.
For `CC(C)c1cnn2c(NCc3ccccc3-n3cccn3)nc(N(C)CCN3CCCC3)nc12` [(VIII-045), N4-(2-(1H-pyrazol-1-yl)benzyl)-8-isopropyl-N2-methyl-N2-(2-(pyrrolidin-1-yl)ethyl)pyrazolo[1,5-a][1,3,5]triazine-2,4-diamine], in that order: greater than 2500 nM, 10 to 25 nM and greater than 2500 nM.
Consider `CC(C)c1cnn2c(NCc3ccccc3-n3cccn3)nc(NCCN3CCOCC3)nc12` [(VIII-046), N4-(2-(1H-pyrazol-1-yl)benzyl)-8-isopropyl-N2-(2-morpholinoethyl)pyrazolo[1,5-a][1,3,5]triazine-2,4-diamine], for which the values for the IC50 in assay [1], in assay [2] and in assay [3] were greater than 2500 nM, greater than 25 nM and greater than 2500 nM, respectively.
For the compound `CC(C)c1cnn2c(NCc3ccccc3-n3cccn3)nc(N3CC(N4CCCC4=O)C3)nc12` [(VIII-047), 1-(1-(4-((2-(1H-pyrazol-1-yl)benzyl)amino)-8-isopropylpyrazolo[1,5-a][1,3,5]triazin-2-yl)azetidin-3-yl)pyrrolidin-2-one], the IC50 in assay [1] was greater than 2500 nM; in assay [2], greater than 25 nM; in assay [3], greater than 2500 nM.
Regarding `CC(C)c1cnn2c(NCc3ccccc3-n3cccn3)nc(NCCOCCN)nc12` [(VIII-048), N4-(2-(1H-pyrazol-1-yl)benzyl)-N2-(2-(2-aminoethoxy)ethyl)-8-isopropylpyrazolo[1,5-a][1,3,5]triazine-2,4-diamine], the IC50 in assay [1] was greater than 2500 nM; in assay [2], 10 to 25 nM; in assay [3], greater than 2500 nM.
For the compound `CC(C)c1cnn2c(NCc3ccccc3-n3cccn3)nc(N(C)CCCN3CCCCC3)nc12` [(VIII-049), N4-(2-(1H-pyrazol-1-yl)benzyl)-8-isopropyl-N2-methyl-N2-(3-(piperidin-1-yl)propyl)pyrazolo[1,5-a][1,3,5]triazine-2,4-diamine], the IC50 was greater than 2500 nM in assay [1], greater than 25 nM in assay [2] and greater than 2500 nM in assay [3].
As to `CC(C)c1cnn2c(NCc3ccccc3-n3cccn3)nc(N3CC4CCNC4C3)nc12` (stereo not drawn) [(VIII-050), N-(2-(1H-pyrazol-1-yl)benzyl)-2-(hexahydropyrrolo[3,4-b]pyrrol-5(1H)-yl)-8-isopropylpyrazolo[1,5-a][1,3,5]triazin-4-amine], the IC50 in assay [1] is greater than 2500 nM; in assay [2] it was 10 to 25 nM; in assay [3], greater than 2500 nM.
As for `CC(C)c1cnn2c(NCc3ccccc3-n3cccn3)nc(NCCN)nc12` [(VIII-051), N4-(2-(1H-pyrazol-1-yl)benzyl)-N2-(2-aminoethyl)-8-isopropylpyrazolo[1,5-a][1,3,5]triazine-2,4-diamine], the IC50 was 500 to 2500 nM in assay [1], 5 to 10 nM in assay [2] and greater than 2500 nM in assay [3].
As to `CC(C)c1cnn2c(NCc3ccccc3-n3cccn3)nc(NCC3CCNC3)nc12` (stereo not drawn) [(VIII-052), N4-(2-(1H-pyrazol-1-yl)benzyl)-8-isopropyl-N2-(pyrrolidin-3-ylmethyl)pyrazolo[1,5-a][1,3,5]triazine-2,4-diamine], the IC50 is greater than 2500 nM in assay [1], greater than 25 nM in assay [2] and greater than 2500 nM in assay [3].
